Data on one compound can be found in PMC10517971, “An inverse agonist of orphan receptor GPR61 acts by a G protein-competitive allosteric mechanism” (Nature Communications, 2023).

SMILES strings stand for the structures. Like-named read-outs stand apart in the source and are kept apart here.

What is called EC50 is the concentration that produces a half-maximal response. The inhibition is how much of the control response was suppressed. Low readings indicate a weak effect, high ones a strong effect.

For this assay, the target named is T1, human GABAA receptor (α1β2γ2) (Homo sapiens, UniProt P14867+P18507+P47870).
T1 construct: expressed in transfected cells
T1 sequence (P14867 28-456): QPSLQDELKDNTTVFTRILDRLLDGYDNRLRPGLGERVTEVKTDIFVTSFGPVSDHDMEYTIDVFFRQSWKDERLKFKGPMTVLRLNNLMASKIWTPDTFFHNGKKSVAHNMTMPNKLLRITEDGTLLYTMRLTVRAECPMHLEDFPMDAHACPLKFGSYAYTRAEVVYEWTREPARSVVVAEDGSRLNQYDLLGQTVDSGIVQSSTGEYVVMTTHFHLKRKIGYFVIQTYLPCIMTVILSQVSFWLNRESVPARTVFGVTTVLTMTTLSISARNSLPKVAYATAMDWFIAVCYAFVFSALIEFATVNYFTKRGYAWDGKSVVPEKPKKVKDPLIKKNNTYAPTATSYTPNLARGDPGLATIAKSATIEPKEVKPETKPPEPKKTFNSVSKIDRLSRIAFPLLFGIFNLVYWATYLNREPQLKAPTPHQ
T1 sequence (P47870 25-512 limits assumed): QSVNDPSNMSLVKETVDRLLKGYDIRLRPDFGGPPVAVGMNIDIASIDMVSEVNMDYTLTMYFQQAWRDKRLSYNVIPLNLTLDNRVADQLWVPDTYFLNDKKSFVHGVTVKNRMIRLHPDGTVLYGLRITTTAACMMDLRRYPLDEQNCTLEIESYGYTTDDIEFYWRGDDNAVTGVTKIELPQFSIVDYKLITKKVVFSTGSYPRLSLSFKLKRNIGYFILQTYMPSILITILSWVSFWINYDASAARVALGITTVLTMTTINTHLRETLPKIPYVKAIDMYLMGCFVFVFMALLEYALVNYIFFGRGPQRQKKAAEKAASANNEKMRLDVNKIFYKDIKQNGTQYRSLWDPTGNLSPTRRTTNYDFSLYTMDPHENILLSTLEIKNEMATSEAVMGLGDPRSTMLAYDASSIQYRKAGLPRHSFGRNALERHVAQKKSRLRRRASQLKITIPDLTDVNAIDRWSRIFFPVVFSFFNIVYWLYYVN
T1 sequence (P18507 40-475): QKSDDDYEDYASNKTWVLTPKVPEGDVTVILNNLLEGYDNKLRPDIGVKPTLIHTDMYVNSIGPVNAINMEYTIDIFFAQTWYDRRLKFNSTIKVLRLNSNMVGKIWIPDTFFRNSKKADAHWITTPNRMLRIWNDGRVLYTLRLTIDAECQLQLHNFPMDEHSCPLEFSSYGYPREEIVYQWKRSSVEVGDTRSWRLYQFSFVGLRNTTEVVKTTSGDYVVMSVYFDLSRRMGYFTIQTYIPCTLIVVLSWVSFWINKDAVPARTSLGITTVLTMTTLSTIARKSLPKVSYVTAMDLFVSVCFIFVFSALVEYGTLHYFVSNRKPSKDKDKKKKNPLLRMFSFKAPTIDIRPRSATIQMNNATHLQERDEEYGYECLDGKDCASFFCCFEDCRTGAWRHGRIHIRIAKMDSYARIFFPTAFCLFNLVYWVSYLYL
In words: GABA Patch Clamp Assay (agonist, antagonist, PAM modes). The format is cell-based. From the text:
151 GABA Patch Clamp Assay
152 Compound effects on the human GABAA recepto r (α1β2γ2), stably express ed in human embryonic
153 kidney (HEK) cells, were examined in three modes of action: agonist, antagonist and positive
154 allosteric modulation (PAM) modes. Chloride currents evoked by the activation of the GABAA
155 recepto r wer e reco rded in the whole- cell patch clamp configuration with the automated Qube384®
156 platform (Sophion Bioscience A/S, Baltorpvej, Denmark). The intracellular solution contained (in
157 mM): CsF 90, CsCl 50, MgCl2 2 EGTA 10, HEPES 10, pH adjusted to 7.2 with CsOH. The
158 extracellular solution contained (in mM): NaCl 138, KCl 5.3, CaCl2 5, MgCl2 0.49, HEPES 10,
160 osmolarity of the internal and external solutions were adjusted with sucrose to 300 mOsm and 305
162 Compounds were dissolved and initially diluted in dimethyl sulfoxide (DMSO), with a final
163 dilution in external sol ution to generate final working concent rations. The final DMSO
164 concentration in all experiments was 0.33% (v/v).
165 Cells and solutions were loaded into the Qube384 10X Qchip (10 recording wells per well, 384
166 wells per QChip). After whole-cell con figuration was achiev ed by negativ e pressure pulse, cells
167 were maintained at a holding potential of - 80 mV throughout the experiment. To avoid
168 desensitization and current rundown due to persistent activation of GABAA, a “stacked pipette”
169 approach was utilized to ensure only a brief exposure of the cells to GABA-containing solutions.
170 In this approach, the perfusion pipettes drew from two liquid sources, first from extracellular
171 solution (14 µL), and next from a GABA-containing solution (7 µL). When dispensed into the
173 extracellular solution. At the start of the experiment, a baseline GABAA cu rrent was established
174 for each well in response to activation by 40 µM GABA. Each subsequent test condition was
175 normalized ag ainst this baseline GABA cu rrent on a per w ell basis.
176 Agonist effects were measured by recording the current evoked by the test article in the absen ce
177 of GABA. Agonism (%) was calculated relative to the current produced by 40 µM GABA for
178 each well: [% Agonism = (Itest article / I 40µM GABA) * 100%].
179 Antagonist effects of test article were examined i n the presence of 40 µM GABA following a 4
180 min incubation in test article. Antagonism was calculated relative to the current produced by 40 […]
182 allosteric modulation (%) by test article was detected when current was enhanced relative to the […]
184 EC50/ IC 50 values were calculated by fitting concentration response curve data to a 4- p aram eter […]
190 determined using a four-parameter logistic fit. […]
193 response. An apparent KB value for antagonist activity was calculated using the following […]
For orientation: The patch-clamp technique gives a direct electrical read-out from membranes.

`CCOc1cc(C)nc(N(CCOC)S(=O)(=O)c2ccc(NCc3c(F)cncc3F)nc2OC)n1` [Compound 1] returned an EC50 of more than 100 µM. Moreover, for the setting “GABAa, 10μM”, the “%Activation@10μM” value is listed as 0% and the inhibition at 10 µM came out at 4%. In addition, where the note is “read-out: PAM EC50, GABAa, positive allosteric modulation mode”, the EC50 was more than 100 µM.
